Legend:
[1] = system: BTZ-resistant MM1.S cells; experiment: Cell viability assay, BTZ-resistant MM1.S; format: cell-based, human
Procedure: Cells and reagents: MM1.S-luc-BTZ (BTZ®)-resistant cell line was made in our laboratory. Starting with 1 nM concentration, MM1.S-luc cells were treated with BTZ and exposed continuously for 5 days and removed for 2 days before re-exposure to the drug until the growth of the cells mimicked the parental cell line. Incremental increase of the drug was applied until the concentration of 8 nM was reached. […] BTZ was procured from Millennium Pharmaceuticals Inc. All cell lines that are used in this study and their detailed information are shown in table 1 below.
Cell viability assay: Cell viability was measured in 96 well culture plates (2×10^4 cells/well) using CellTiter-Glo® Luminescent Cell Viability Assay (Promega, Madison, WI, USA) according to the manufacturer's protocol.

MM1.S-luc = experiment: Chou and Talalay drug combination test with BTZ; format: cell-based, human; conditions: combined with BTZ; lower dose range affecting 70% of myeloma cells or less
Procedure: Cell vi-ability and LD50 for inhibitors were measured in 96 well culture plates (2×10^4 cells/well) after 72 h of treatment using CellTiter-Glo® Luminescent Cell Viability Assay (Promega, Madison, WI, USA). (A) Cell survival assay with MM1.S.luc and BTZ-resistant MM1.S.luc cells. […] (C) Comparison of PDIA1 protein levels in MM1.S.luc and MM1.S.luc BTZ-resistant cells. Band intensity was calculated with Image Lab Version 5.2.1. (D) Cell survival assay with 5TGM1.luc and (E) BTZ-resistant 5TGM1.luc cells. (F) MM1.S cell line was exposed to CCF642-34, and BTZ for 72 h for synergistic drug combination test according to Chou and Talalay method. If the […] remained less than 1, the two drugs were determined as synergistic. […] The number of colony-forming units were plotted for each treatment.

[2] = system: myeloma cells (MM1.S, MM1.S.LUC, BTZ-resistant MM1.S.LUC); experiment: ROS detection (carboxy-H2DCFDA); format: cell-based, human; conditions: 2.5 μM, peaking between 2-3 h
Procedure: ROS detection: MM1.S, MM1.S.LUC, and BTZ-resistant MM1.S.LUC cells were washed with DPBS and treated with 5 μM carboxy-H2DCFDA (Molecular Probes) for 45 min at 37° C. The cells were then washed 3 times in DPBS and followed by 2.5 μM CCF642-34 treatment up to 4 h. After the incubation, the cells were washed 3 times and the intracellular ROS was quantified (excitation=493 nm; […]) using a BioTek Synergy plate reader (BioTek Instruments, Inc., Winooski, VT, USA).

PDIA1 = PDIA1 (Homo sapiens, UniProt P07237); experiment: Target validation in cells with biotinylated analogues (streptavidin blot, pull down, LCMS); format: cell-based; conditions: streptavidin blot and pull down of treated MM1.S cells
Sequence of PDIA1 (P07237 18-508): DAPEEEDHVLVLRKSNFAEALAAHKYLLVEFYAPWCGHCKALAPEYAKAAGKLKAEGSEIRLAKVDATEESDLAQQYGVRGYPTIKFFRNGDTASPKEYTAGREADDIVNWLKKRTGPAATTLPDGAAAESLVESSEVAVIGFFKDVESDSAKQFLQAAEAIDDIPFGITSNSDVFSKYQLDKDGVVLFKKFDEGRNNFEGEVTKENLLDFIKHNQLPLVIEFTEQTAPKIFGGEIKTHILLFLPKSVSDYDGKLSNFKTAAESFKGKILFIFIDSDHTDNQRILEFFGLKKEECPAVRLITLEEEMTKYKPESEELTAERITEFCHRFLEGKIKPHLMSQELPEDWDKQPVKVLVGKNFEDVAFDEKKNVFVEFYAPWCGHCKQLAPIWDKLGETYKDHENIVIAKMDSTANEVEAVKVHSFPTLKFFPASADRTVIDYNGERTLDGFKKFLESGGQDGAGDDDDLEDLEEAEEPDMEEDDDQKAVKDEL
Procedure: FIGS. 4A-4G provide graphs and images showing that model-based design improves potency and selectivity of protein disulfide isomerase A1 (PDIA1) inhibitors. (A) Ribbon diagram of CCF642-34 docked onto PDIA1. (B) Two-dimensional structure of modified CCF642 pharmacophore, where R represents amino acids tryptophan, tyrosine, phenylalanine, histidine, proline, or alanine. (C) PDIA1/PH4B activity assay was performed in the absence or presence of CCF642 or (D) CCF642-34. In time-dependent inhibition of di-E-GSSG, reduction was monitored for 1 h by the increase in fluorescence, and the relative fluorescence unit was plotted as a function of time. (E-F) The observed rate constant for inhibition, kobs, at each concentration determined from the slope of kinetic data presented in panel C and D. The kobs values are re-plotted against inhibitor concentration and fitted to a hyperbolic equation, kobs=k2[I]/(Ki+[I]), to obtain values for Ki and k2 in GraphPad Prism v8.0.2. The concentration of drug is indicated on each curve, for (E) 642 and (F) CCF642-34. (G) Target validation. […]
Mass spectrometry: Tryptic peptide mixtures were analyzed by online LC-coupled tandem mass spectrometry (LCMS/MS) on an Orbitrap mass spectrometer (Thermo Fisher) as described previously. […] A peak list was created for each analyzed fraction (i.e., gel slice) and individual Sequest searches were performed for each fraction. […]

NC(CC1CNc2ccccc21)C(=O)NCCCOc1ccc(N2C(=O)/C(=C/c3ccc([N+](=O)[O-])s3)SC2=S)cc1 (stereo not shown) [CCF642-34]
sensitivity of BTZ-resistant MM1.S compared to parental BTZ-naive MM1.S [1]: ~2 fold
combination index (CI) (MM1.S-luc): below 1
increase of reactive oxygen species (ROS) [2]: 4-6 fold
binding selectivity in MM1.S cells (PDIA1): remarkable selectivity for PDIA1

Reference: patent US12649734B2, “Bioavailable protein disulfide isomerase inhibitors” (THE CLEVELAND CLINIC FOUNDATION, priority 2020, dated 2026)
